Data as given in US12685791B2, “Free PSA antibodies as diagnostics, prognostics and therapeutics for prostate cancer” (Memorial Sloan Kettering Cancer Center, priority 2011, dated 2026).
Where “and” joins values, the source holds several entries; their conditions need not be identical. Identical values can stand only once.

Columns and labels:
[1] = test system: bone remodeling (fractured tibia); experiment: Bone fracture model, PET/SPECT of bone remodeling; format: in vivo, mice; conditions: PET or SPECT
Protocol: Osseous tumors were established in intact male mice via injection of LNCaP-AR in the tibia of the left hindlimb as follows. Prior to surgery, […] male SCID mice were anesthetized with ketamine, and an incision was be made in the left hind limb. The tibia was punctured using a bone drill, and 1×10^5 cells (22Rv1 or LNCaP-AR) injected into the marrow. The puncture was closed with bone wax, the incision sutured, and animals received a palliative dose of carprofen (5 mg/kg) once daily for three days post surgery. Tumor development was followed with bioluminescence imaging, and confirmed with MRI. The bone fracture model was prepared similar to the osseous tumor model, excluding injection of cells and application of bone wax.
In FIG. 14c, intact male mice received a fracture in the tibia, and ten days post surgery, bone remodeling was evaluated with ^18F—NaF. A clear region of contrast was identified in the fractured tibia by PET.

LNCaP-AR xenografts [2] = experiment: Ex vivo biodistribution of 89Zr-5A10, castrate male mice bearing LNCaP-AR xenografts treated with vehicle or MDV3100 (Table 13); format: in vivo
fPSA and tPSA [3] = experiment: Tumor PSA ELISA, castrate male mice bearing LNCaP-AR tumors treated with vehicle or MDV3100 (Table 14); format: in vivo, human; conditions: for f/t PSA Ratio / fPSA / fPSA/tProtein: tumor, individual mice, listed as MDV
Protocol: (§1) Mice were injected with ^89Zr-5A10, and at the indicated time point post injection, were sacrificed for PSA analysis. Tumor tissues were surgically excised. fPSA and total PSA (“tPSA”) were determined with PSA-directed ELISA, and the values were normalized to total protein concentration. fPSA concentrations are reported as average ng/ml(a), total PSA (“tPSA”) concentrations are reported as ng/mL (b), and total protein concentrations are reported as ng/mg (c). ELISAs were conducted as follows for PSA detection in serum and tumor tissues. fPSA and tPSA were measured with a dual-label immunofluorometric assay (DELFIA Prostatus™ PSA Free/Total PSA; Perkin-Elmer Life Sciences) according to manufacturer's recommendations. This assay measured fPSA and complexed PSA (cPSA) in an equimolar fashion^8, and the cross-reactivity of PSA-ACT for fPSA was <0.2%^9. […] For detection, the 1235 automatic immunoassay system from Perkin-Elmer Life Sciences was used. cPSA concentrations were calculated by subtracting fPSA from tPSA.
As expected, each dose of MDV3100 inhibited AR signaling and fPSA synthesis (Table 14). Table 14 provides data regarding tumor analysis of PSA expression levels via ELISA in castrate male mice bearing LNCaP-AR tumors treated with antiandrogens. Castrate male mice bearing LNCaP-AR xenografts received a daily oral gavage of vehicle (VEH #), 10 mg/kg (MDV10 #), 40 mg/kg (MDV40 #), or 80 mg/kg (MDV80 #). Six days post manipulation, mice were injected with ^89Zr-5A10. Twenty four hours post injection, mice were sacrificed for PSA analysis. Tumor tissues were surgically excised. fPSA and tPSA were determined with PSA-directed ELISA (as above), and in the case of intratumoral PSA, the values were normalized to total protein concentration. ^afPSA concentrations are reported as ng/ml, ^btotal PSA concentrations are reported as ng/mL, ^ctotal protein concentrations are reported as ng/mg. Abbreviations: fPSA, fPSA; tPSA, total PSA.

LNCaP-AR xenografts [4] = experiment: 89Zr-5A10 PET, region-of-interest analysis (SUVmean) of s.c. LNCaP-AR tumors (Table 16); format: in vivo, mice
Protocol: PET imaging experiments were conducted on a microPET Focus 120 scanner (Concorde Microsystems). […] Approximately 5 min prior to recording PET images, mice were anesthetized by inhalation of 1-2% isoflurane (Baxter Healthcare, Deerfield, IL)/oxygen gas mixture and placed on the scanner bed. PET images were recorded at various time-points between 1-120 h post-injection. List-mode data were acquired for between 10 and 30 min. using a T-ray energy window of 350-750 keV, and a coincidence timing window of 6 ns. For all static images, scan time was adjusted to ensure a minimum of 20 million coincident events were recorded. Data were sorted into 2-dimensional histograms by Fourier re-binning, and transverse images were reconstructed by filtered back-projection (FBP) into a 128×128×63 (0.72×0.72×1.3 mm) matrix. The reconstructed spatial resolution for ^89Zr was 1.9 mm full-width half maximum (FWHM) at the center of the field-of-view (FOV). […] An empirically determined system calibration factor (in units of [mCi/mL]/[cps/voxel]) for mice was used to convert voxel count rates to activity concentrations. […] Manually drawn 2-dimensional regions-of-interest (ROIs) or 3-dimensional volumes-of-interest (VOIs) were used to determined the maximum and mean % ID/g (decay corrected to the time of injection) in various tissues. Images were analyzed by using ASIPro VM™ software (Concorde Microsystems).

fPSA and tPSA [5] = experiment: Tumor PSA ELISA, castrate male mice bearing 22Rv1 tumors, no treatment or testosterone pellet (Table 12); format: in vivo, human; conditions: 22Rv1 tumor, individual mice with s.c. testosterone pellet, 7 d
Protocol: as §1
Twenty four hours post-injection, mice were sacrificed for PSA analysis. […]

fPSA and tPSA [6] = experiment: Intratumoral PSA ELISA, castrate male mice bearing LNCaP-AR xenografts, no treatment or testosterone pellet (Table 10); format: in vivo, human
Protocol: as §1
Table 10 provides intratumoral PSA concentrations in castrate male mice bearing LNCaP-AR xenografts, receiving either no manipulation, or a subcutaneous testosterone pellet. […] Twenty four hours post injection, mice were sacrificed for PSA analysis. Tumor tissues were surgically excised. fPSA and tPSA were determined with PSA-directed ELISA (as above), and in the case of intratumoral PSA, the values were normalized to total protein concentration. ^afPSA concentrations are reported as ng/ml, ^btotal PSA concentrations are reported as ng/mL, ^ctotal protein concentrations are reported as ng/mg. Abbreviations: fPSA, fPSA; tPSA, total PSA.

[7] = 10 mg/kg daily oral gavage, 10 mg/kg
[8] = 40 mg/kg daily oral gavage, 40 mg/kg
[9] = 80 mg/kg daily oral gavage, 80 mg/kg
[10] = tumor, individual mice with s.c. testosterone pellet, 7 d

[18F-].[Na+] [18FNaF]
localization to site of bone repair (fractured tibia) [1]: readily localized

O.O.O=P([O-])([O-])CP(=O)([O-])[O-].[99Tc+4] [99mTc-MDP]
localization to site of bone repair (fractured tibia) [1]: readily localized

CNC(=O)c1ccc(N2C(=S)N(c3ccc(C#N)c(C(F)(F)F)c3)C(=O)C2(C)C)cc1F [MDV3100]
tumor-associated 89Zr-5A10 (LNCaP-AR xenografts [2]; 40 and 80 mg/kg dose vs vehicle): significantly decreased
effect on localization of 89Zr-5A10 to tumor (LNCaP-AR xenografts [2]; daily oral gavage 7 d, 10, 40 or 80 mg/kg): inhibits
AR signaling and fPSA synthesis (fPSA and tPSA [3]; each dose (10, 40, 80 mg/kg)): inhibited
f/t PSA Ratio (fPSA and tPSA [3]; [7]): 0.73 and 0.56 and 0.60 and 0.69
fPSA (fPSA and tPSA [3]; [7]): 19.12 ng/mL and 48.98 ng/mL and 3.96 ng/mL and 474.40 ng/mL
fPSA/tProtein (fPSA and tPSA [3]; [7]): 3.29 and 7.07 and 0.88 and 51.57
f/t PSA Ratio (fPSA and tPSA [3]; [8]): 0.89 and 0.85 and 0.80
fPSA (fPSA and tPSA [3]; [8]): 71.24 ng/mL and 43.25 ng/mL and 98.26 ng/mL
fPSA/tProtein (fPSA and tPSA [3]; [8]): 11.61 and 6.14 and 15.13
f/t PSA Ratio (fPSA and tPSA [3]; [9]): 0.57 and 0.69 and 0.59
fPSA (fPSA and tPSA [3]; [9]): 5.97 ng/mL and 77.83 ng/mL and 57.31 ng/mL
fPSA/tProtein (fPSA and tPSA [3]; [9]): 1.18 and 10.34 and 9.99
tumor-associated 89Zr-5A10 by PET (LNCaP-AR xenografts [4]; 80 mg/kg daily oral gavage vs vehicle): statistical changes

C[C@]12CC[C@H]3[C@@H](CCC4=CC(=O)CC[C@@]43C)[C@@H]1CC[C@@H]2O [testosterone]
fPSA (fPSA and tPSA [5]): 31.0 ng/mL and 26.8 ng/mL and 29.8 ng/mL and 32.9 ng/mL
fPSA/tProtein (fPSA and tPSA [5]): 3.60 and 2.84 and 3.44 and 4.19
intratumoral PSA levels (fPSA and tPSA [6]; s.c. testosterone pellet vs no manipulation): increased
f/t PSA Ratio (fPSA and tPSA [6]; [10]): 0.81 and 0.60 and 0.70 and 0.20
fPSA (fPSA and tPSA [6]; [10]): 147.77 ng/mL and 424.31 ng/mL and 384.89 ng/mL and 566.42 ng/mL
fPSA/tProtein (fPSA and tPSA [6]; [10]): 22.69 and 51.56 and 65.44 and 66.60
tumor-associated 89Zr-5A10 by PET (LNCaP-AR xenografts [4]; s.c. testosterone pellets): significant increase
